Test results: patent US20140005145A1, “COMBINATION BREAST CANCER THERAPY WITH HSP90 INHIBITORY COMPOUNDS” (SYNTA PHARMACEUTICALS CORP., priority 2010, published 2014)

Legend:
[1] = test system: MCF-7 human breast cancer tumor cells; test: MCF-7 human breast tumor xenograft in nude mice, Compound 1 with or without tamoxifen; format: in vivo
Method: Tumor-bearing animals (5 mice/group) were i.v. injected 1 time per week for a total of 3 doses with 10 mL/kg of 10/18 DRD vehicle with or without 180 mg/kg Compound 1. Animals were also implanted with slow release tamoxifen pellets (Tam). In the combination treatment group, animals were dosed with Compound 1 four days after tamoxifen pellets were implanted. Each group that was not dosed with Compound 1 was instead dosed with 10/18 DRD vehicle as a mock treatment. Average tumor volumes for each group were determined every 3-5 days.
The human breast cancer cell line, MCF-7, was obtained from the American Type Culture Collection (Manassas, Va., USA) and grown according to the ATCC guidelines. MCF-7 xenografts were established in twenty nude mice (Charles River Laboratories, Wilmington, Mass., USA) supplemented with slow release estrogen pellets as previously described, using 5×10^6 cells (1), and randomized into treatment groups. Ten days after cells were inoculated half of the animals were supplemented with slow release tamoxifen pellets.
To formulate Compound 1 in 10/18 DRD, stock solutions of the test article were prepared by dissolving the appropriate amounts of the compound in dimethyl sulfoxide (DMSO) by sonication in an ultrasonic water bath. Stock solutions were prepared weekly, stored at −20° C. and diluted fresh each day for dosing. A solution of 20% Cremophor RH40 (polyoxyl 40 hydrogenated castor oil; BASF Corp., Aktiengesellschaft, Ludwigshafen, Germany) in 5% dextrose in water (D5W; Abbott Laboratories, North Chicago, Ill., USA) was also prepared by first heating 100% Cremophor RH40 at 50-60° C. until liquefied and clear, diluting 1:5 with 100% D5W, reheating again until clear and then mixing well. This solution was stored at room temperature for up to 3 months prior to use. To prepare 10/18 DRD formulations for daily dosing, DMSO stock solutions were diluted 1:10 with 20% Cremophor RH40. The final 10/18 DRD formulation for dosing contained 10% DMSO, 18% Cremophor RH40, 3.6% dextrose, 68.4% water and the appropriate amount of test article. Animals were intravenously (i.v.) injected with this formulation at 10 mL per kg body weight on one day each week for a total of 3 doses, four days after tamoxifen pellets were implanted.
The ability of Compound 1 to enhance the in vivo anti-tumor activity of tamoxifen was investigated.

[2] = test system: MCF-7 breast cancer cells; test: Emergence of tamoxifen resistant clones in MCF-7 cell culture; format: cell-based, human; details: tamoxifen combined with compound 1, MCF-7 cell culture

Row | SMILES | adverse finding in dosed animals ([1]; Compound 1 alone cohort, 180 mg/kg i.v., one of the animals, following the first dose, removed from the study) | in vivo growth rate of MCF-7 cells (tumor volume) ([1]; Compound 1 alone, 180 mg/kg i.v. 1 time per week, 3 doses, nude mice) | effect in combination with tamoxifen in the treatment of breast cancer ([1]; in combination with tamoxifen, preclinical model) | tumor response (tumor volume) to the combination ([1]; slow release tamoxifen combined with 180 mg/kg Compound 1 i.v. 1 time per week, 3 doses, nude mice) | emergence of tamoxifen resistant clones [2] | in vivo growth rate of MCF-7 cells (tumor volume) ([1]; slow release tamoxifen pellets alone (10/18 DRD vehicle as mock treatment), nude mice)
1 | CC(C)c1cc(-c2nnc(O)n2-c2ccc3c(ccn3C)c2)c(O)cc1O [Compound 1, 3-(2,4-dihydroxy-5-isopropyl-phenyl)-4-(1-methyl-indol-5-yl)-5-hydroxy-[1,2,4]triazole] | signs of necrosis in the tail | moderate reductions in the growth rate | surprising synergistic effect | significant tumor regression | dramatically limited the emergence of tamoxifen resistant clones | 
2 | CC/C(=C(\c1ccccc1)c1ccc(OCCN(C)C)cc1)c1ccccc1 [tamoxifen, reference compound] |  |  |  |  |  | moderate reductions in the growth rate
